Measurements: patent publication US10968260B2, “Curcumin-peptide conjugates and formulations thereof” (HAUS BIOCEUTICALS, INC., priority 2014, dated 2021)

Columns and labels:
[1] = system: advanced Alzheimer's disease; test: Clinical case study: Alzheimer's disease (Example 5); type: in vivo, human; conditions: Case 20, 1.2 g curcumin bid, after 30 days
Source text: A person was presented with advanced Alzheimer's disease. Prior to dosing, they failed all short term memory questions on a test. […] They have continued to have lasting benefit from the therapy.

[2] = parameters: species or system mice; conditions: mouse, in vivo
Protocol: Mice weighed ˜25 g each. Blood was drawn every 30 minutes for 180 total minutes.

Question: For `COc1cc(C=CC(=O)CC(=O)C=Cc2ccc(O)c(OC)c2)ccc1O` [curcumin, 1,7-bis[4-hydroxy-3-methoxyphenyl]-1,6-heptadiene-3,5-dione], which “short term memory questions on a test, advanced Alzheimer's disease” value [1] is on record?
Answer: passed all short term memory questions

Question: What about the absorbability / bioavailability [2] of the same compound?
Answer: very poor absorbability
